Data reported in US10760110B2, “Antibiotic testing and screening system” (priority 2017, dated 2020).
Like-named read-outs stand apart in the source and are kept apart here.

Legend:
[1] = system: A. baumannii KW1 strains with β-lactamase plasmids; assay: Etest MIC of β-lactams, extended-spectrum β-lactamase, AmpC β-lactamase or carbapenemase (Table 18); assay type: cell-based, Acinetobacter baumannii
Experimental: DNA fragments of the resistance genes along with their flanking regions were amplified from clinical plasmids via PCR with specific primer pairs. The resulting PCR fragments were digested and then cloned into the plasmid pYMAb5 or pYMAb5Tc. The resulting plasmids were then transformed into A. baumannii KW1 via electroporation.
(§1) The MICs of antibiotics were determined using the Etest (Biodisk AB, Sweden) according to the manufacturer's instructions. The MICs from the Etest, which fall between standard two-fold dilutions, were rounded up to the next highest two-fold value. The MICs of ceftazidime and cefotaxime against K. pneumoniae NVT1001 harbouring the pACYC177 plasmid with blaOXA-48 were further determined using a broth microdilution test according to the recommendations of the CLSI,^25 and the results were interpreted according to the breakpoints established by the CLSI in 2017.^25 Meanwhile, due to the lack of CLSI breakpoints in 2016 and 2017, the results for cephalothin were interpreted according to the breakpoints established by the CLSI in 2015,^26 and the results for moxifloxacin were interpreted according to the breakpoints established by the EUCAST in 2017.^27

[2] = system: K. pneumoniae NVT1001 strains with Sul/Dfr plasmids; assay: Etest MIC of folate pathway inhibitors, OmpK35/36 loss, ΔramR and/or drug-resistant target enzyme (Table 15); assay type: cell-based, Klebsiella pneumoniae; conditions: Klebsiella pneumoniae
Experimental: DNA fragments of the resistance genes along with their flanking regions were amplified from clinical plasmids via PCR with specific primer pairs. The resulting PCR fragments were digested and then cloned into the plasmid pACYC177 or pACYC184. The resulting plasmids were then transformed into K. pneumoniae strain NVT1001 via electroporation. The recombinant bacteria were plated onto LB agar plates containing kanamycin (50 mg/L) or chloramphenicol (50 mg/L), and the presence of the cloned gene was confirmed via PCR and DNA sequencing.
as §1

[3] = system: K. pneumoniae NVT1001 ΔramRΔompK35/36 mutant and its revertants; assay: Etest MIC, ΔramRΔompK35/36 mutant and its revertants (Table 7); assay type: cell-based; conditions: Klebsiella pneumoniae
Description: The allelic-exchange method was used to restore the wild-type gene in the K. pneumoniae NVT1001 mutants with constructed chromosome-mediated resistance mechanisms, as described by Tsai et al.^19 Briefly, a DNA fragment of the entire wild-type gene sequence along with flanking regions was amplified from K. pneumoniae NVT1001 using PCR with specific primers. The resulting PCR fragment was digested and then cloned into pUT-KB. For homologous recombination, this plasmid was transformed into E. coli S17-1 λpir^23 via electroporation and mobilized into the K. pneumoniae NVT1001 mutant via conjugation. […] After incubation in 20 mL BHI broth for 6 hours at 37° C. in the absence of kanamycin, the fully grown cultures were spread onto LB agar plates supplemented with 10% sucrose. After the double crossover occurred, the sucrose-resistant and kanamycin-susceptible colonies were selected, and the restoration of the wild-type gene was confirmed via DNA sequencing.
as §1

[4] = system: K. pneumoniae NVT1001 and its ΔompK35/36 and/or ΔramR mutants; assay: Etest MIC, OmpK35/36 loss and AcrAB-TolC overexpression (ΔramR) strains (Table 6); assay type: cell-based, Klebsiella pneumoniae; conditions: Klebsiella pneumoniae
Experimental: as §1

Measured: MIC

C[C@@H](O)[C@H]1C(=O)N2C(C(=O)O)=C(S[C@@H]3CN[C@H](C(=O)Nc4cccc(C(=O)O)c4)C3)[C@H](C)[C@H]12 [ETP]
>32 µg/mL: [1]; KW1 with ADC-30 on pYMAb5 | [1]; KW1 with IMP-1 on pYMAb5 | [1]; KW1 with NDM-1 on pYMAb5 | [1]; KW1 with OXA-23 on pYMAb5 | [1]; KW1 with OXA-58 on pYMAb5 | [1]; KW1 with OXA-66 on pYMAb5 | [1]; KW1 with OXA-72 on pYMAb5 | [1]; KW1 with VIM-1 on pYMAb5
3 µg/mL: [1]; KW1, no supplemental plasmid | [1]; KW1 with VEB-3 on pYMAb5 | [1]; KW1 with shuttle vector pYMAb5
12 µg/mL: [1]; KW1 with CTX-M-15 on pYMAb5

C[C@H]1[C@H](NC(=O)/C(=N\OC(C)(C)C(=O)O)c2csc(N)n2)C(=O)N1S(=O)(=O)O [ATM]
12 µg/mL: [1]; KW1 with NDM-1 on pYMAb5 | [1]; KW1 with OXA-66 on pYMAb5 | [1]; KW1 with VIM-1 on pYMAb5 | [1]; KW1 with shuttle vector pYMAb5
16 µg/mL: [1]; KW1, no supplemental plasmid | [1]; KW1 with IMP-1 on pYMAb5 | [1]; KW1 with OXA-23 on pYMAb5 | [1]; KW1 with OXA-58 on pYMAb5 | [1]; KW1 with OXA-72 on pYMAb5
>256 µg/mL: [1]; KW1 with CTX-M-15 on pYMAb5 | [1]; KW1 with VEB-3 on pYMAb5
64 µg/mL: [1]; KW1 with ADC-30 on pYMAb5

CCN1CCN(C(=O)N[C@@H](C(=O)N[C@@H]2C(=O)N3[C@@H]2SC(C)(C)[C@@H]3C(=O)O)c2ccccc2)C(=O)C1=O [PP]
>256 µg/mL: [1]; KW1 with ADC-30 on pYMAb5 | [1]; KW1 with CTX-M-15 on pYMAb5 | [1]; KW1 with NDM-1 on pYMAb5 | [1]; KW1 with OXA-23 on pYMAb5 | [1]; KW1 with OXA-72 on pYMAb5 | [1]; KW1 with VIM-1 on pYMAb5
128 µg/mL: [1]; KW1 with OXA-58 on pYMAb5
12 µg/mL: [1]; KW1, no supplemental plasmid | [1]; KW1 with VEB-3 on pYMAb5 | [1]; KW1 with shuttle vector pYMAb5
64 µg/mL: [1]; KW1 with OXA-66 on pYMAb5
16 µg/mL: [1]; KW1 with IMP-1 on pYMAb5

Cc1cc(NS(=O)(=O)c2ccc(N)cc2)no1 [Sulfamethoxazole]
> 1020 µg/mL: [2]; DfrA1 on pACYC177, ΔompK35/36 mutant | [2]; DfrA1 on pACYC177, ΔompK35 mutant | [2]; DfrA1 on pACYC177, ΔompK36 mutant | [2]; DfrA1 on pACYC177, ΔramR mutant | [2]; DfrA1 on pACYC177, ΔramRΔompK35/36 mutant | [2]; DfrA1 on pACYC177, ΔramRΔompK35 mutant | [2]; DfrA1 on pACYC177, ΔramRΔompK36 mutant | [2]; DfrA16 on pACYC177, ΔompK35/36 mutant | [2]; DfrA16 on pACYC177, ΔompK35 mutant | [2]; DfrA16 on pACYC177, ΔompK36 mutant | [2]; DfrA16 on pACYC177, ΔramR mutant | [2]; DfrA16 on pACYC177, ΔramRΔompK35/36 mutant | [2]; DfrA16 on pACYC177, ΔramRΔompK35 mutant | [2]; DfrA16 on pACYC177, ΔramRΔompK36 mutant | [2]; Sul1 on pACYC177, WT (NVT1001), read-out: MIC | [2]; Sul1 on pACYC177, ΔompK35/36 mutant | [2]; Sul1 on pACYC177, ΔompK35 mutant | [2]; Sul1 on pACYC177, ΔompK36 mutant | [2]; Sul1 on pACYC177, ΔramR mutant | [2]; Sul1 on pACYC177, ΔramRΔompK35/36 mutant | [2]; Sul1 on pACYC177, ΔramRΔompK35 mutant | [2]; Sul1 on pACYC177, ΔramRΔompK36 mutant | [2]; Sul2 on pACYC177, WT (NVT1001), read-out: MIC | [2]; Sul2 on pACYC177, ΔompK35/36 mutant | [2]; Sul2 on pACYC177, ΔompK35 mutant | [2]; Sul2 on pACYC177, ΔompK36 mutant | [2]; Sul2 on pACYC177, ΔramR mutant | [2]; Sul2 on pACYC177, ΔramRΔompK35/36 mutant | [2]; Sul2 on pACYC177, ΔramRΔompK35 mutant | [2]; Sul2 on pACYC177, ΔramRΔompK36 mutant | [2]; no supplemental plasmid, ΔompK35/36 mutant | [2]; no supplemental plasmid, ΔompK36 mutant | [2]; no supplemental plasmid, ΔramR mutant | [2]; no supplemental plasmid, ΔramRΔompK35/36 mutant | [2]; no supplemental plasmid, ΔramRΔompK35 mutant | [2]; no supplemental plasmid, ΔramRΔompK36 mutant | [3]; ΔramRΔompK35/36::ompK35/36 revertant | [3]; ΔramRΔompK35/36::ompK35 revertant | [3]; ΔramRΔompK35/36::ompK36 revertant | [3]; ΔramRΔompK35/36::ramR revertant | [3]; ΔramRΔompK35/36::ramR::ompK35 revertant | [3]; ΔramRΔompK35/36 mutant | [4]; Δ35/36, ΔompK35/36 mutant | [4]; Δ36, ΔompK36 mutant | [4]; ΔramR mutant | [4]; ΔramRΔ35, ΔramRΔompK35 mutant | [4]; ΔramRΔ35/36, ΔramRΔompK35/36 mutant | [4]; ΔramRΔ36, ΔramRΔompK36 mutant
256 µg/mL: [2]; DfrA1 on pACYC177, WT (NVT1001), read-out: MIC | [2]; DfrA16 on pACYC177, WT (NVT1001), read-out: MIC | [2]; no supplemental plasmid, WT (NVT1001), read-out: MIC | [2]; no supplemental plasmid, ΔompK35 mutant | [3]; ΔramRΔompK35/36::ramR::ompK35/36 revertant | [3]; ΔramRΔompK35/36::ramR::ompK36 revertant | [4]; WT, NVT1001 | [4]; Δ35, ΔompK35 mutant

C[C@@H](O)[C@H]1C(=O)N2C(C(=O)O)=C(S[C@@H]3CN[C@H](CNS(N)(=O)=O)C3)[C@H](C)[C@H]12 [DOR]
>32 µg/mL: [1]; KW1 with NDM-1 on pYMAb5 | [1]; KW1 with OXA-23 on pYMAb5 | [1]; KW1 with OXA-72 on pYMAb5 | [1]; KW1 with VIM-1 on pYMAb5
0.38 µg/mL: [1]; KW1, no supplemental plasmid | [1]; KW1 with VEB-3 on pYMAb5 | [1]; KW1 with shuttle vector pYMAb5
1.5 µg/mL: [1]; KW1 with CTX-M-15 on pYMAb5
4 µg/mL: [1]; KW1 with ADC-30 on pYMAb5
8 µg/mL: [1]; KW1 with OXA-66 on pYMAb5
16 µg/mL: [1]; KW1 with IMP-1 on pYMAb5
6 µg/mL: [1]; KW1 with OXA-58 on pYMAb5

C[C@@H](O)[C@H]1C(=O)N2C(C(=O)O)=C(S[C@@H]3CN[C@H](C(=O)N(C)C)C3)[C@H](C)[C@H]12 [MP]
0.5 µg/mL: [1]; KW1, no supplemental plasmid | [1]; KW1 with VEB-3 on pYMAb5 | [1]; KW1 with shuttle vector pYMAb5
12 µg/mL: [1]; KW1 with IMP-1 on pYMAb5
8 µg/mL: [1]; KW1 with OXA-66 on pYMAb5
>32 µg/mL: [1]; KW1 with NDM-1 on pYMAb5 | [1]; KW1 with OXA-23 on pYMAb5 | [1]; KW1 with OXA-72 on pYMAb5 | [1]; KW1 with VIM-1 on pYMAb5
6 µg/mL: [1]; KW1 with OXA-58 on pYMAb5
2 µg/mL: [1]; KW1 with CTX-M-15 on pYMAb5
3 µg/mL: [1]; KW1 with ADC-30 on pYMAb5
